{"source": "ChEMBL document CHEMBL4368915", "about": "“Synthesis and Biological Investigation of Phenothiazine-Based Benzhydroxamic Acids as Selective Histone Deacetylase 6 Inhibitors” (J Med Chem, 2019)", "key": {"[1]": {"target": "Histone deacetylase 1 (Homo sapiens, UniProt Q13547)", "sequence (Q13547 whole entry)": "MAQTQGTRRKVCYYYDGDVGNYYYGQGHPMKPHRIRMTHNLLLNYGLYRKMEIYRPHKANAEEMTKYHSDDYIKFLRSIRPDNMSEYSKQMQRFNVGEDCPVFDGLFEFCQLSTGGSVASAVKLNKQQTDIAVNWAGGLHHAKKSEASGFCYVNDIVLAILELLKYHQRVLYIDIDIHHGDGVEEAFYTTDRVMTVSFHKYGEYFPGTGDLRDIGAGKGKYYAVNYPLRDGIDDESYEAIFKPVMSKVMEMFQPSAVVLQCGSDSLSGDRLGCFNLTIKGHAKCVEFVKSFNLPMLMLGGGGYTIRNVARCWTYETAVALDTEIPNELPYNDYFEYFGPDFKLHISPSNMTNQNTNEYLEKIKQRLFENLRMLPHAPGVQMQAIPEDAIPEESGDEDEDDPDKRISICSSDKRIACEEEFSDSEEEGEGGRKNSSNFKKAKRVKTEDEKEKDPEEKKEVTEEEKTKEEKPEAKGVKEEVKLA"}, "[2]": {"target": "T1, Protein deacetylase HDAC6 (Homo sapiens, UniProt Q9UBN7)", "T1 sequence (Q9UBN7 whole entry)": "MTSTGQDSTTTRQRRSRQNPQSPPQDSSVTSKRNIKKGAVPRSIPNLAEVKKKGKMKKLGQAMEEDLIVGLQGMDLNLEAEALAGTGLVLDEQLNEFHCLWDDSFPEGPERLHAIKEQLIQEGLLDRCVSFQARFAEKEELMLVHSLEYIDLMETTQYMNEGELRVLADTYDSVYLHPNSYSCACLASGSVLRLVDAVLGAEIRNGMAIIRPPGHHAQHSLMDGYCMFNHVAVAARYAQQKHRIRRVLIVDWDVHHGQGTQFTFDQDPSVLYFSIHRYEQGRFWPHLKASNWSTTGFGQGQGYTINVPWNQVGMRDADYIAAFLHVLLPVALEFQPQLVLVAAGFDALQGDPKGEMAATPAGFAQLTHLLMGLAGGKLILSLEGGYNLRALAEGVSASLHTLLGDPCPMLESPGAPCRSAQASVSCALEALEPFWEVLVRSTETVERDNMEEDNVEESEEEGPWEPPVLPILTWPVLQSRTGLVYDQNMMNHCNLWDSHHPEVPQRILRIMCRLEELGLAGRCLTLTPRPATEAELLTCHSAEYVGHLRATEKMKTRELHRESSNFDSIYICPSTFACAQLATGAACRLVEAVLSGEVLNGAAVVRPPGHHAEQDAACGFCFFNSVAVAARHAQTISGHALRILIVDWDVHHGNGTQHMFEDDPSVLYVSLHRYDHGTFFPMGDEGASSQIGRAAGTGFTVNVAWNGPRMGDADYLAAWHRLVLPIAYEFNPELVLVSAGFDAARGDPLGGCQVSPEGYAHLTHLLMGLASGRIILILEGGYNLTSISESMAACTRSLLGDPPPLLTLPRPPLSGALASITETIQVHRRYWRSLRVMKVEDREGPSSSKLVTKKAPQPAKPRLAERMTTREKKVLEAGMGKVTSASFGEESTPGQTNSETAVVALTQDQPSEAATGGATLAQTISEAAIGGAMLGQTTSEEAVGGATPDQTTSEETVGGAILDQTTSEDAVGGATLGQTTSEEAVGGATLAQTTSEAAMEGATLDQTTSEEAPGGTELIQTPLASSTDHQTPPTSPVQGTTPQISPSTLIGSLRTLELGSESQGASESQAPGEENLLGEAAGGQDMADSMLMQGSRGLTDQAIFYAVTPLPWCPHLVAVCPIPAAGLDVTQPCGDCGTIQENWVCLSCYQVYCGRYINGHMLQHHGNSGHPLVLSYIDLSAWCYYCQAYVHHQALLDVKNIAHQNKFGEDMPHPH"}, "[3]": {"test_system": "HepaRG", "assay": "(§1) Cytotoxicity against human HepaRG cells assessed as cell viability at 100 uM after 24 hrs by CellTiter blue-reagent based assay relative to control", "settings": "heparg, 24 h, 100 µM"}, "[4]": {"target": "Histone deacetylase 4 (Homo sapiens) (UniProt P56524)", "sequence (P56524 whole entry, the tested form may be a part)": "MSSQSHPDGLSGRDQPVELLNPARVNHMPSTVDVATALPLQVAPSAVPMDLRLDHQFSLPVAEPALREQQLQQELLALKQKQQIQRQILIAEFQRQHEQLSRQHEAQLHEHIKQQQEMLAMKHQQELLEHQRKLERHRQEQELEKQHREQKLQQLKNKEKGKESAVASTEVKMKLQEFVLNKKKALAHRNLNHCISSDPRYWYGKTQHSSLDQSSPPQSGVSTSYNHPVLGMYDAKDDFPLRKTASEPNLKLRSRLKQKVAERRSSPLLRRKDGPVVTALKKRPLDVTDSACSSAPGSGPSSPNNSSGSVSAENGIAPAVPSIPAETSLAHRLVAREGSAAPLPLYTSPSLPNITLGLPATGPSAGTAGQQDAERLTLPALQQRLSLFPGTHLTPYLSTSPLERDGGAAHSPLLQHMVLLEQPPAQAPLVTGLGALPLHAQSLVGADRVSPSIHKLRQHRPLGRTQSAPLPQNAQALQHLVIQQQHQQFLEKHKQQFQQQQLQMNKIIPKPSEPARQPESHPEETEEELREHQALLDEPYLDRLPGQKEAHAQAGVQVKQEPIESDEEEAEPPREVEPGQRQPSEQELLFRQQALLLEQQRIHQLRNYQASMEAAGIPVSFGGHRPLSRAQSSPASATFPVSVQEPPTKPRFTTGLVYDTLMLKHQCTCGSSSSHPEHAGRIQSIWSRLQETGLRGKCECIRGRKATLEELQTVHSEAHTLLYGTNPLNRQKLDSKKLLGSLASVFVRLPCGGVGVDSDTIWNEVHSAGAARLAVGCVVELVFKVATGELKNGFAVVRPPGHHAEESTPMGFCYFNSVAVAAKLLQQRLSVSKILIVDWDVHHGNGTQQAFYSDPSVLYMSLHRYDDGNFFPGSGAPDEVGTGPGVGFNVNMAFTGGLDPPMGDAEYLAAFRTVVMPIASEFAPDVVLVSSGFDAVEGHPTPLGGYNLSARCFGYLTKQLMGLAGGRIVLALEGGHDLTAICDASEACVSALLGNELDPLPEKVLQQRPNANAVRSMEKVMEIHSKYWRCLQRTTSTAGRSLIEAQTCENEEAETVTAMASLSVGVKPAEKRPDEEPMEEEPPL", "assay": "Inhibition of recombinant N-terminal GST/His-tagged human HDAC4 (627 to 1084 residues) expressed in baculovirus expression system at 10 uM using fluorogenic ZMTFAL as substrate incubated for 90 mins by fluorescence assay relative to control"}, "[5]": {"assay": "Half life in human liver microsomes at 2 uM by LC-MS/MS analysis", "assay_type": "ADME, Microsome"}, "[6]": {"assay": "Intrinsic clearance in human liver microsomes at 2 uM by LC-MS/MS analysis", "assay_type": "ADME, Microsome"}, "[7]": {"target": "T2, CYP1A2 (Homo sapiens, UniProt P05177)", "T2 sequence (P05177 whole entry)": "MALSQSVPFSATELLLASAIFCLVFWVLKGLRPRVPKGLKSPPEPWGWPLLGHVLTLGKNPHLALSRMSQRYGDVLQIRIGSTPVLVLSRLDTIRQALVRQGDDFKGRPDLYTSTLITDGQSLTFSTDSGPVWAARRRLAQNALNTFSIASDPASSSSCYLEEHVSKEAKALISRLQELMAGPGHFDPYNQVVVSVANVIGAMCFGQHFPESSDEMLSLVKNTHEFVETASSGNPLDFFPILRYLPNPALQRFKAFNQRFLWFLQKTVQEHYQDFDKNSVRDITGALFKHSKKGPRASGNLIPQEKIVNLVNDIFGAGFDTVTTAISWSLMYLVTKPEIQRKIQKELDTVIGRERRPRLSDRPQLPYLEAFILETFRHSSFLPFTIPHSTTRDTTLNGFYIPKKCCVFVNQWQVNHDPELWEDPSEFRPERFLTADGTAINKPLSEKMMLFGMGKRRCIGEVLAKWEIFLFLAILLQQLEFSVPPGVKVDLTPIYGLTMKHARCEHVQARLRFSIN", "assay": "Inhibition of human CYP1A2 in human liver microsomes at 10 uM relative to control", "assay_type": "ADME"}, "[8]": {"target": "CYP2C9 (Homo sapiens, UniProt P11712)", "sequence (P11712 whole entry)": "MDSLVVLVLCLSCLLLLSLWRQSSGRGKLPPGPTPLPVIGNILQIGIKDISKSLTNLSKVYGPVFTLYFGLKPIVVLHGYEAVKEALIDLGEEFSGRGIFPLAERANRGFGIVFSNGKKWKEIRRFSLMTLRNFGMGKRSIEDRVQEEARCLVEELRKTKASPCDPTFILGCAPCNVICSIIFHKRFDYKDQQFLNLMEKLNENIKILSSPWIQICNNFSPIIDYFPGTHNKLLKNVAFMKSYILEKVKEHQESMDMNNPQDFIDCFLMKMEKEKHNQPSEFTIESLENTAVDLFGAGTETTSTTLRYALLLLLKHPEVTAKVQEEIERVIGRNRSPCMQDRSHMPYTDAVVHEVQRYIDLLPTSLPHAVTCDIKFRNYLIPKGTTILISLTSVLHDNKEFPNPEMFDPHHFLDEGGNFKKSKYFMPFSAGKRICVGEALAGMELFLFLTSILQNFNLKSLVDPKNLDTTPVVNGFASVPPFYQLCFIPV", "assay": "Inhibition of human CYP2C9 in human liver microsomes at 10 uM relative to control", "assay_type": "ADME"}, "[9]": {"target": "CYP2C19 (Homo sapiens, UniProt P33261)", "sequence (P33261 whole entry)": "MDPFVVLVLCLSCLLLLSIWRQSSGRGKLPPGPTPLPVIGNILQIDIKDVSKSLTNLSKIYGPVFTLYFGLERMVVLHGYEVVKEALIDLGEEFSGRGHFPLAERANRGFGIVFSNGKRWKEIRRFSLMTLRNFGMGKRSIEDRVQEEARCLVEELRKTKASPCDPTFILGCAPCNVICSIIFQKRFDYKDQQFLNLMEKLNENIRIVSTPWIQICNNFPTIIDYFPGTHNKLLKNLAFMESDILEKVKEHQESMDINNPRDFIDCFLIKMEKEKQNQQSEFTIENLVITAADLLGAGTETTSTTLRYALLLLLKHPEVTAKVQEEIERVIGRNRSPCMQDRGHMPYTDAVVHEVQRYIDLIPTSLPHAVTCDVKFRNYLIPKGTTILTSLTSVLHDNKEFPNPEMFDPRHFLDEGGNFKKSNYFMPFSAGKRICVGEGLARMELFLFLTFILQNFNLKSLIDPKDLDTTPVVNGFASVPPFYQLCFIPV", "assay": "Inhibition of human CYP2C19 in human liver microsomes at 10 uM relative to control", "assay_type": "ADME"}, "[10]": {"target": "CYP2D6 (Homo sapiens, UniProt P10635)", "sequence (P10635 whole entry)": "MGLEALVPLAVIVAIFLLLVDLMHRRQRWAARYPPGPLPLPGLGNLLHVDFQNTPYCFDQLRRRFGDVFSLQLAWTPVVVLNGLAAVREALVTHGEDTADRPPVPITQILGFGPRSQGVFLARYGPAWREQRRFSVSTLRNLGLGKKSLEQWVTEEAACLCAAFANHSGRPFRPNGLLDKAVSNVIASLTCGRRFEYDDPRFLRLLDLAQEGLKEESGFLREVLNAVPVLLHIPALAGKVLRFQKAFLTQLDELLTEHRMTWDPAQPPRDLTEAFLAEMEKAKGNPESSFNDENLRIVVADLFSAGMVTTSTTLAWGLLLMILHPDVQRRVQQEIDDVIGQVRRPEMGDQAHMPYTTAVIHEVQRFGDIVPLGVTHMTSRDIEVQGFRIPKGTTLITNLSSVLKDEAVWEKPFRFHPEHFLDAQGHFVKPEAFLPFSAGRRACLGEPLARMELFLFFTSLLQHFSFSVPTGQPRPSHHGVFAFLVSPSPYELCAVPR", "assay": "Inhibition of human CYP2D6 in human liver microsomes at 10 uM relative to control", "assay_type": "ADME"}, "[11]": {"test_system": "Huh-7", "assay": "Antiproliferative activity against human HuH7 cells assessed as inhibition of cell proliferation at 10 to 100 uM after 72 hrs by CellTiter blue-reagent based assay", "assay_type": "functional"}, "[12]": {"test_system": "MDA-MB-231", "assay": "Antiproliferative activity against human MDA-MB-231 cells assessed as inhibition of cell proliferation at 10 to 100 uM after 72 hrs by CellTiter blue-reagent based assay", "assay_type": "functional"}, "[13]": {"test_system": "T-24", "assay": "Antiproliferative activity against human T24 cells assessed as inhibition of cell proliferation at 10 to 100 uM after 72 hrs by CellTiter blue-reagent based assay", "assay_type": "functional"}, "[14]": {"test_system": "T-24", "assay": "Synergistic potentiation of Bortezomib-induced antiproliferative activity against human T24 cells assessed as effect on cell index, at 1 uM incubated for 24 hrs by cell impedance based assay", "assay_type": "functional"}, "[15]": {"assay": "Stability in human liver microsomes assessed as compound remaining at 2 uM measured up to 20 mins by LC-MS/MS analysis", "assay_type": "ADME, Microsome"}, "[16]": {"target": "T3, Histone deacetylase 8 (Homo sapiens, UniProt Q9BY41)", "T3 sequence (Q9BY41 whole entry)": "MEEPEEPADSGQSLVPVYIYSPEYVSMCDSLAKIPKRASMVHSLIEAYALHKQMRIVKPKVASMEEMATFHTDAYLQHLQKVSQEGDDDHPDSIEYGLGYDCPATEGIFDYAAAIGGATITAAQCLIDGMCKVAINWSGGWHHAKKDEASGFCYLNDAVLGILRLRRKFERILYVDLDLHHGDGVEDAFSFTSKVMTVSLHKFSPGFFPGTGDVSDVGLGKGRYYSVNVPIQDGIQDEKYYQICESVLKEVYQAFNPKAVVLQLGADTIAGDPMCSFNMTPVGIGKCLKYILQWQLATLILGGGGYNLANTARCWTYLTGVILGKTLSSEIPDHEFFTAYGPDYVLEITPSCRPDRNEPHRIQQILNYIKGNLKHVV"}, "[17]": {"test_system": "MDA-MB-231", "assay": "Induction of apoptosis in human MDA-MB-231 cells at 1 to 10 uM after 48 hrs by propidium iodide-staining based FACS analysis", "assay_type": "functional, cell-based"}, "[18]": {"test_system": "T-24", "assay": "Induction of apoptosis in human T24 cells at 1 to 10 uM after 48 hrs by propidium iodide-staining based FACS analysis", "assay_type": "functional, cell-based"}, "[19]": {"test_system": "HL-60", "assay": "Antiproliferative activity against human HL60 cells after 72 hrs by CellTiter blue-reagent based assay", "assay_type": "functional, cell-based"}, "[20]": {"test_system": "MCF7", "assay": "Antiproliferative activity against human MCF7 cells after 72 hrs by CellTiter blue-reagent based assay", "assay_type": "functional, cell-based"}, "[21]": {"test_system": "THP-1", "assay": "Antiproliferative activity against human THP1 cells after 72 hrs by CellTiter blue-reagent based assay", "assay_type": "functional, cell-based"}, "[22]": {"assay": "Drug level in human liver microsomes treated with 2 uM 4-[(10H-Phenothiazin-10-yl)methyl]-N-hydroxybenzamide assessed as compound formation after 40 mins by LC-MS/MS analysis", "assay_type": "ADME, Microsome"}, "[23]": {"assay": "as §1", "settings": "HepaRG cells, read-out: Activity"}}, "note": "The source made the active and inactive calls. The rule behind the calls is not given here."}
{"compound": "O=C(NO)c1ccc(CN2c3ccccc3Sc3ccc(Cl)cc32)cc1", "values": [{"measurement": "IC50", "setting": "[1]", "result": 2950, "unit": "nM"}, {"measurement": "IC50", "setting": "[2]", "result": 12, "unit": "nM"}]}
{"compound": "O=C(NO)c1ccc(CN2c3ccccc3Sc3cccnc32)cc1", "values": [{"measurement": "Activity", "setting": "[3]", "result": "Non-Toxic"}, {"measurement": "inhibition", "setting": "[4]", "result": "< 20", "unit": "%"}, {"measurement": "t1/2", "setting": "[5]", "result": 2.47, "unit": "h"}, {"measurement": "CLH", "setting": "[6]", "result": 11, "unit": "µL/min/mg"}, {"measurement": "inhibition at 10 µM", "setting": "[7]", "result": 15.2, "unit": "%"}, {"measurement": "inhibition at 10 µM", "setting": "[8]", "result": 3.4, "unit": "%"}, {"measurement": "inhibition at 10 µM", "setting": "[9]", "result": 27.7, "unit": "%"}, {"measurement": "inhibition at 10 µM", "setting": "[10]", "result": 12, "unit": "%"}, {"measurement": "inhibition", "setting": "[11]", "result": "Active"}, {"measurement": "inhibition", "setting": "[12]", "result": "Active"}, {"measurement": "inhibition", "setting": "[13]", "result": "Active"}, {"measurement": "Activity", "setting": "[14]", "result": "inactive"}, {"measurement": "Stability", "setting": "[15]", "result": "Stable"}, {"measurement": "IC50", "setting": "[1]", "result": 2690, "unit": "nM"}, {"measurement": "IC50", "setting": "[16]", "result": 3100, "unit": "nM"}]}
{"compound": "COc1ccc2c(c1)N(Cc1ccc(C(=O)NO)cc1)c1ccccc1S2", "values": [{"measurement": "IC50", "setting": "[1]", "result": 2070, "unit": "nM"}, {"measurement": "IC50", "setting": "[2]", "result": 10, "unit": "nM"}]}
{"compound": "O=C(CCCCCCC(=O)Nc1ccccc1)NO", "values": [{"measurement": "Activity", "setting": "[17]", "result": "Active"}, {"measurement": "Activity", "setting": "[18]", "result": "Active"}, {"measurement": "Activity", "setting": "[19]", "result": "Active"}, {"measurement": "Activity", "setting": "[20]", "result": "Active"}, {"measurement": "Activity", "setting": "[21]", "result": "Active"}]}
{"compound": "O=C(NO)c1ccc(CN2c3ccccc3[S+]([O-])c3ccccc32)cc1", "values": [{"measurement": "Drug uptake", "setting": "[22]", "result": "Active"}, {"measurement": "IC50", "setting": "[1]", "result": 6810, "unit": "nM"}, {"measurement": "IC50", "setting": "[2]", "result": 77, "unit": "nM"}]}
{"compound": "O=C(NO)c1ccc(CN2c3ccncc3Sc3ncccc32)cc1", "values": [{"measurement": "viability at 24 h, 100 µM", "setting": "[23]", "result": 80, "unit": "%"}, {"measurement": "inhibition", "setting": "[4]", "result": "< 20", "unit": "%"}, {"measurement": "inhibition", "setting": "[11]", "result": "Active"}, {"measurement": "inhibition", "setting": "[12]", "result": "Active"}, {"measurement": "inhibition", "setting": "[13]", "result": "Active"}, {"measurement": "Activity", "setting": "[14]", "result": "inactive"}, {"measurement": "IC50", "setting": "[1]", "result": 3340, "unit": "nM"}, {"measurement": "IC50", "setting": "[2]", "result": 12, "unit": "nM"}, {"measurement": "IC50", "setting": "[16]", "result": 2000, "unit": "nM"}]}
{"compound": "O=C(CCCCCCC(=O)Nc1ccc([C@H]2O[C@@H](CSc3nc(-c4ccccc4)c(-c4ccccc4)o3)C[C@@H](c3ccc(CO)cc3)O2)cc1)NO", "note": "[TUBACIN]", "values": [{"measurement": "IC50", "setting": "[1]", "result": 1010, "unit": "nM"}]}
{"compound": "O=C(NO)c1ccc(CN2c3cccnc3Sc3cccnc32)cc1", "values": [{"measurement": "IC50", "setting": "[2]", "result": 14, "unit": "nM"}]}
{"compound": "O=C(NO)c1ccc(N2c3ccccc3Sc3ccccc32)cc1", "values": [{"measurement": "IC50", "setting": "[2]", "result": 2670, "unit": "nM"}]}
{"compound": "O=C(NO)c1ccc(CN2N=C(Cl)C=C3Sc4ccccc4N=C32)cc1", "values": [{"measurement": "IC50", "setting": "[2]", "result": 115, "unit": "nM"}]}
{"compound": "O=C(NO)c1ccc(CN2N=CC=C3Sc4ccccc4N=C32)cc1", "values": [{"measurement": "IC50", "setting": "[2]", "result": 19, "unit": "nM"}]}
{"compound": "O=C(NO)c1ccc(CN2c3ccncc3Sc3ccncc32)cc1", "values": [{"measurement": "IC50", "setting": "[2]", "result": 9, "unit": "nM"}]}
{"compound": "Cc1nc2c(s1)Sc1ccccc1N2Cc1ccc(C(=O)NO)cc1", "values": [{"measurement": "IC50", "setting": "[2]", "result": 37, "unit": "nM"}]}
